Experimental data published in patent EP4656642A1, “ESTROGEN RECEPTOR PROTEOLYSIS TARGETING CHIMERA COMPOUND AND USE THEREOF” (GAN & LEE PHARM CO., LTD, priority 2023, dated 2024).

Experiments:
Type in all cases: cell-based
MCF-7 cells = test: Inhibition of cell proliferation of MCF-7 cells (CCK-8, 9 days); details: treated for 9 days, CCK-8 kit (Table 6)
Outline: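 MCF-7 cells seeded at 800 cells/well in DMEM with 10% FBS, exposed to a range of compound concentrations for 9 days at 37°C, 5% CO2. Viability read by CCK-8; IC50 derived for proliferation inhibition.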

ERα [1] = target: T1, ERα (Homo sapiens, UniProt P03372); test: Degradation of ERα in MCF-7 cells (immunoblotting, 4 h)
T1 sequence (P03372 1-595): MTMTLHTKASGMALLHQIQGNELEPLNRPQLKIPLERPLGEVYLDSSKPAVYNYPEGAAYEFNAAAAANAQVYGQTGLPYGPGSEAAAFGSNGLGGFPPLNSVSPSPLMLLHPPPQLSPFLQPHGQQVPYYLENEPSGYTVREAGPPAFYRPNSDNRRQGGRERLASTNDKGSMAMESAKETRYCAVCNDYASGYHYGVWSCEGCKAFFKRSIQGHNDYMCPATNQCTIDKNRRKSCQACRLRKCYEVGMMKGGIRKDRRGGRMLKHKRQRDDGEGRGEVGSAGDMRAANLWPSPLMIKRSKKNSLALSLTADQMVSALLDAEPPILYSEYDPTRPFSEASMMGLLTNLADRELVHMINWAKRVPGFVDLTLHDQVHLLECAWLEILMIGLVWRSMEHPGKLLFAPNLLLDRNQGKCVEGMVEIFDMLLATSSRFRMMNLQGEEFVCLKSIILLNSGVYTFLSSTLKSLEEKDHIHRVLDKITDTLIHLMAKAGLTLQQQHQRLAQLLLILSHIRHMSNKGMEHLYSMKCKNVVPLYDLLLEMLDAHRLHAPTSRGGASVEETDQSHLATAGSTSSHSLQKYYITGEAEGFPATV
Outline: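 MCF-7 cells treated 4 h at 37°C with compounds at 0.15-1000nM final. ERα in lysates measured by immunoblot, with band grayscale normalized to an internal reference protein. Degradation rate calculated against DMSO-treated control.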

ERα [2] = target: T1, ERα; test: Degradation of ERα in T-47D cells (immunoblotting, 4 h); set-up: host or cells: T-47D
Outline: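 T-47D cells were treated with compound (final 0.15-1000 nM, DMSO) for 4 h at 37°C, 5% CO2. Cells were lysed in RIPA buffer with protease inhibitor, and ERα protein in the cleared lysate was measured by immunoblotting.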

Row | Structure (SMILES) | IC50 (MCF-7 cells) [nM] | Degradation rate (%) of ERα in MCF-7 cells (ERα [1]; 1nM compound) [%] | Degradation rate (%) of ERα in MCF-7 cells (ERα [1]; 10nM compound) [%] | Degradation rate (%) of ERα in T-47D cells (ERα [2]; 1nM compound) [%] | Degradation rate (%) of ERα in T-47D cells (ERα [2]; 10nM compound) [%]
1 | O=C1CCC(N2Cc3c(ccc4c3OCC43CCN(C4CCN(C5CCN(c6ccc(C7c8ccc(O)cc8CCC7c7ccccc7)cc6)CC5)CC4F)CC3)C2=O)C(=O)N1 (stereo not shown) [G13] | 6.82 | 30 | 71 | 43 | 80
2 | O=C1CCC(N2Cc3c(ccc4c3OC3(CC4)CCN(C4CCN(C(=O)C5CCN(c6ccc([C@@H]7c8ccc(O)cc8CC[C@@H]7c7ccccc7)cc6)CC5)CC4)CC3)C2=O)C(=O)N1 (stereo partly shown) [G15] | 10.2 | -19 | 20 | 39 | 72
3 | C[C@@H]1Cc2c(ccc3[nH]ncc23)C(c2c(F)cc(N3CCC4(CCC(N5CCC6(CC5)COc5c6ccc6c5CN(C5CCC(=O)NC5=O)C6=O)CC4)CC3)cc2F)N1CC(F)F (stereo partly shown) [G20] | 49.7 | 22 | 45 | 51 | 69
4 | CC1Cc2c(ccc3[nH]ncc23)C(c2c(F)cc(N3CCC4(CC3)CC(N3CCC(N5CCC6(CC5)COc5c6ccc6c5CN(C5CCC(=O)NC5=O)C6=O)C(F)C3)C4)cc2F)N1CC(F)F (stereo not shown) [G22] | 5.08 | 50 | 65 | 34 | 63
5 | O=C1CCC(N2Cc3c(ccc4c3OCC43CCN(C(=O)C45CCC(CN6CCN(c7ccc([C@@H]8c9ccc(O)cc9CC[C@@H]8c8ccccc8)cc7)CC6)(CC4)CC5)CC3)C2=O)C(=O)N1 (stereo partly shown) [G23] | 445 | 1 | 43 | 28 | 62
6 | O=C1CCC(N2Cc3c(ccc4c3OCC43CCN(C[C@H]4CC[C@@H](OC5CCN(c6ccc([C@@H]7c8ccc(O)cc8CC[C@@H]7c7ccccc7)cc6)CC5)CC4)CC3)C2=O)C(=O)N1 (stereo partly shown) [G25] | 8.97 | 10 | 77 | 49 | 79
7 | O=C1CCC(N2Cc3cc4c(cc3C2=O)CCC2(CN(CC3CCN(c5ccc([C@@H]6c7ccc(O)cc7CC[C@@H]6c6ccccc6)cc5)CC3)C2)O4)C(=O)N1 (stereo partly shown) [H2] | 5900 | -77 | -70 | -11 | -23
8 | O=C1CCC(N2C(=O)c3ccc4c(c3C2=O)OCC42CCN(CC3CCN(c4ccc([C@@H]5c6ccc(O)cc6CC[C@@H]5c5ccccc5)cc4)CC3)CC2)C(=O)N1 (stereo partly shown) [H4] | 7740 | -32 | -7 | -41 | -48
9 | O=C1CCC(N2Cc3cc4c(cc3C2=O)C2(CCN(CC3CCN(c5ccc([C@@H]6c7ccc(O)cc7CC[C@@H]6c6ccccc6)cc5)CC3)CC2)CO4)C(=O)N1 (stereo partly shown) [H6] | 4170 | -6 | 7 | -35 | -32
10 | O=C1CCC(N2Cc3cc4c(cc3C2=O)CCC2(CN(C3CCN(C(=O)c5ccc([C@@H]6c7ccc(O)cc7CC[C@@H]6c6ccccc6)cc5)CC3)C2)O4)C(=O)N1 (stereo partly shown) [H10] | 9280 | -28 | -4 | 0 | 36
11 | O=C1CCC(N2Cc3cc4c(cc3C2=O)OC2(CC4)CN(C3CC4(CCC5(CCN(c6ccc([C@@H]7c8ccc(O)cc8CC[C@@H]7c7ccccc7)cc6)CC5)CC4)C3)C2)C(=O)N1 (stereo partly shown) [H24] | 1180 | -7 | 11 | 16 | 21
12 | O=C1CCC(N2Cc3cc4c(cc3C2=O)OC2(CC4)CN(C3CC4(CCC5(CC4)CN(c4ccc([C@@H]6c7ccc(O)cc7CC[C@@H]6c6ccccc6)cc4)C5)C3)C2)C(=O)N1 (stereo partly shown) [H26] | 1260 | -9 | -11 | 1 | 2

Other lines, results leading:

Row | IC50 (MCF-7 cells) [nM] | Degradation rate (%) of ERα in MCF-7 cells (ERα [1]; 1nM compound) [%] | Degradation rate (%) of ERα in MCF-7 cells (ERα [1]; 10nM compound) [%] | Degradation rate (%) of ERα in T-47D cells (ERα [2]; 1nM compound) [%] | Degradation rate (%) of ERα in T-47D cells (ERα [2]; 10nM compound) [%] | Structure (SMILES)
13 | 3.07 | 54 | 70 | 68 | 81 | O=C1CCC(N2Cc3c(ccc4c3OCC43CCN(C(=O)C4CCC(CN5CCN(c6ccc(C7c8ccc(O)cc8CCC7c7ccccc7)cc6)CC5)CC4)CC3)C2=O)C(=O)N1 (stereo not shown) [G16]
14 | 129 | 63 | 77 | 49 | 78 | O=C1CCC(N2Cc3c(ccc4c3OCC43CCN(C[C@H]4CC[C@H](C(=O)N5CCN(c6ccc([C@@H]7c8ccc(O)cc8CC[C@@H]7c7ccccc7)cc6)CC5)CC4)CC3)C2=O)C(=O)N1 (stereo partly shown) [G18]
15 | 3.24 | 39 | 62 | 48 | 71 | O=C1CCC(N2Cc3c(ccc4c3OCC43CCN(C(=O)CN4CCC5(CCN(c6ccc([C@@H]7c8ccc(O)cc8CC[C@@H]7c7ccccc7)cc6)C5)C4)CC3)C2=O)C(=O)N1 (stereo partly shown) [H13]
16 | > 100000 | 8 | -13 | 31 | 27 | O=C1CCC(N2Cc3c(ccc4c3OCC43CCN(C(=O)CN4CCN(c5ccc([C@@H]6c7ccc(O)cc7CC[C@@H]6c6ccccc6)cc5)CC4)CC3)C2=O)C(=O)N1 (stereo partly shown) [H14]
17 | 43.5 | 29 | 51 | 5 | 56 | O=C1CCC(N2Cc3c(ccc4c3OCC43CCN(CC4CCC(N5CCN(c6ccc([C@@H]7c8ccc(O)cc8CC[C@@H]7c7ccccc7)cc6)CC5)CC4)CC3)C2=O)C(=O)N1 (stereo partly shown) [H15]
18 | 140 | 53 | 77 | 50 | 81 | O=C1CCC(N2Cc3c(ccc4c3OCC43CCN(CC(=O)NC4CC5(CCN(c6ccc([C@@H]7c8ccc(O)cc8CC[C@@H]7c7ccccc7)cc6)CC5)C4)CC3)C2=O)C(=O)N1 (stereo partly shown) [H46]
19 | 363 | 39 | 76 | 49 | 82 | CN(C(=O)CN1CCC2(CC1)COc1c2ccc2c1CN(C1CCC(=O)NC1=O)C2=O)C1CC2(CCN(c3ccc([C@@H]4c5ccc(O)cc5CC[C@@H]4c4ccccc4)cc3)CC2)C1 (stereo partly shown) [H47]
20 | 1260 | 38 | 71 | 53 | 78 | CN(CC(=O)N1CCC2(CC1)COc1c2ccc2c1CN(C1CCC(=O)NC1=O)C2=O)C1CC2(CCN(c3ccc([C@@H]4c5ccc(O)cc5CC[C@@H]4c4ccccc4)cc3)CC2)C1 (stereo partly shown) [H48]
21 | 5.08 | 50 | 71 | 48 | 77 | CN(C(=O)CN1CCC2(CC1)COc1c2ccc2c1CN(C1CCC(=O)NC1=O)C2=O)C1CCC2(CC1)CN(c1ccc([C@@H]3c4ccc(O)cc4CC[C@@H]3c3ccccc3)cc1)C2 (stereo partly shown) [H49]
22 | 153 | 46 | 75 | 49 | 79 | CN(CC(=O)N1CCC2(CC1)COc1c2ccc2c1CN(C1CCC(=O)NC1=O)C2=O)C1CCC2(CC1)CCN(c1ccc([C@@H]3c4ccc(O)cc4CC[C@@H]3c3ccccc3)cc1)CC2 (stereo partly shown) [H51]
23 | 5320 | 53 | 61 | 49 | 74 | CN(CC(=O)N1CCC2(CC1)COc1c2ccc2c1CN(C1CCC(=O)NC1=O)C2=O)C1CCC2(CC1)CN(c1ccc([C@@H]3c4ccc(O)cc4CC[C@@H]3c3ccccc3)cc1)C2 (stereo partly shown) [H52]
